Measured values from US20230286983A1 (4E Therapeutics, Inc., priority 2020, published 2023).
Several values for one entry are separate records, joined by “and”; a condition that tells them apart may be missing. Equal entries are not always repeated. Where two headings read alike, the source gives them in different places.

Legend:
[1] = tested on: eIF4E phosphorylation at Serine 209 in the human embryonic kidney (HEK) 293 cell line; test: eIF4E phosphorylation in HEK 293 cells (fluorescent plate reader); type: cell-based; conditions: Homo sapiens, HEK293, 2 h, eIF4E phosphorylation at Serine 209, 2 hours exposure
Procedure, shortened: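 HEK-293 cells were treated with compound for 2 h, then methanol-fixed and Triton-permeabilized. Ser209 phospho-eIF4E was stained with primary antibody (1:2000, overnight) and an Alexa Fluor 488 secondary. Fluorescence was normalized to DAPI, and IC50 was fitted from concentration-response data.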

[2] = Brain vs plasma concentration, 4ET-03-009 at 10 mg/kg; type: in vivo, mice; conditions: 10 mg/kg oral, 2 hours after dosing; for concentration at 2 hours: oral, 10 mg/kg
Procedure: In separate mice administered the same therapy, brain tissue was harvested 2 hours after dosing and brain concentration of the MNK inhibitor was measured by homogenizing brain tissue followed by LC-MS/MS analysis. Plasma concentration was measured as described above.

[3] = Liver microsome stability, rat; type: in vitro ADME; conditions: Rat liver microsomes (#)
P-gp (human MDR1, ABCB1) = test: MDCK-MDR1 permeability (blood brain barrier permeability); type: in vitro ADME, Canine; conditions: dog; for efflux ratio at 5 μM: MDCK-MDR1, 5 μM, read-out: Efflux ratio (ratio B-A/A-B); for Papp A→B at 5 μM: MDCK-MDR1, Apical to basolateral transport; for Papp A→B at 5 μM / Papp B→A at 5 μM: average of two experiments; for Papp B→A at 5 μM: MDCK-MDR1, Basolateral to apical transport
MNK1 = MNK1 (Homo sapiens, UniProt Q9BUB5); test: MNK1 substrate phosphorylation assay; type: biochemical; conditions: recombinant human kinase
MNK2 = MNK2 (Homo sapiens, UniProt Q9HBH9); test: MNK2 substrate phosphorylation assay; type: biochemical; conditions: recombinant human kinase
IL-6 evoked grimace = IL-6 evoked grimace test; type: in vivo, ICR mice
Procedure: Institute for Cancer Research (ICR) mice were used in these experiments. Mice were bred in house at University of Texas at Dallas and used at between 12 and 24 weeks of age. Mice were habituated to plexiglass boxes of approximately 4×6 inches in size with openable tops. Habituation took place over 2 days with animals exposed to the boxes for at least 30 min. A blinded observer scored baseline grimacing using the method previously described by Mogil and colleagues (Langford, et al., Coding of facial expressions of pain in the laboratory mouse. Nat Methods (2010) 7:447-449.). On test day, mice were given test compounds 1 hr prior to injection of interleukin 6 (human recombinant IL-6, R&D Systems) which was given at a dose of 0.1 ng in saline via an intraplantar injection as described previously (Moy et al. The MNK-eIF4E Signaling Axis Contributes to Injury-Induced Nociceptive Plasticity and the Development of Chronic Pain. J Neurosci (2017) 37:7481-7499.). Test compounds were given orally (PO) via a flexible oral gavage canula built for mice. 4ET-01-021 (10.0, 3.0, and 1.0 mg/kg) and 4ET-03-052B (10.0 mg/kg) are efficacious in the IL-6 evoked grimace test in mice. FIG. 5 depicts a comparison of effect size in the IL-6 evoked grimace test. Effect sizes were calculated per mouse by subtracting the baseline grimace score from the sum of the grimace scores for 1 and 3 hr time points. […] FIG. 6 is a graph showing the effect size in the IL-6 evoked grimace test vs. dose of 4ET-01-021.

[4] = Liver microsome stability, mouse; type: in vitro ADME; conditions: mouse, liver microsomes, mouse liver microsomes, Table 11b; read-out: T1/2
[5] = Pharmacokinetic study, 4ET-01-021 with IV and PO dosing; type: in vivo, CD-1 male mice; conditions: for concentration at 24 h: read-out: Clast; for bioavailability: read-out: F (oral bioavailability)
Procedure: 4ET-01-021 was dissolved in 10% dimethylacetamide (DMA)/90% propylene glycol (PG) for oral dosing and 10% DMI (dimethyl isosorbide)/15% EtOH (ethanol)/35% PG (propylene glycol)/40% NS (normal saline) for IV dosing. CD-1 male mice were dosed with 4ET-01-021 at 1.0 mg/kg (IV), 3.0 mg/kg (PO), or 10.0 mg/kg (PO). Plasma was collected at indicated timepoints and plasma concentration of 4ET-01-021 was measured using liquid chromatography-mass spectrometry/mass spectrometry (LC-MS/MS).
In mice, following IV administration with 1.0 mg/kg, plasma concentrations declined in a multiphasic manner with an initial concentration (Co) of 0.860 μg/mL and a last measurable concentration (Clast) of 19.3 ng/mL at 24 h post dose. […] Results are presented in Table 13; mean values averaged for 3 animals are shown.
Results are presented in Table 14; mean values averaged for 3 animals are shown.
Results are presented in Table 15; mean values averaged for 3 animals are shown.

[6] = IV 1.0 mg/kg, mean of 3 animals
[7] = male, CD-1, mouse, plasma, po, orally dosed at 3 mg/kg, mean of 3 animals
[8] = male, CD-1, mouse, plasma, po, orally dosed at 10 mg/kg, mean of 3 animals
[9] = male, CD-1, mouse, plasma, IV 1.0 mg/kg, mean of 3 animals
[10] = orally dosed at 3 mg/kg, mean of 3 animals
[11] = orally dosed at 10 mg/kg, mean of 3 animals

Sequence of MNK1 (Q9BUB5 whole entry): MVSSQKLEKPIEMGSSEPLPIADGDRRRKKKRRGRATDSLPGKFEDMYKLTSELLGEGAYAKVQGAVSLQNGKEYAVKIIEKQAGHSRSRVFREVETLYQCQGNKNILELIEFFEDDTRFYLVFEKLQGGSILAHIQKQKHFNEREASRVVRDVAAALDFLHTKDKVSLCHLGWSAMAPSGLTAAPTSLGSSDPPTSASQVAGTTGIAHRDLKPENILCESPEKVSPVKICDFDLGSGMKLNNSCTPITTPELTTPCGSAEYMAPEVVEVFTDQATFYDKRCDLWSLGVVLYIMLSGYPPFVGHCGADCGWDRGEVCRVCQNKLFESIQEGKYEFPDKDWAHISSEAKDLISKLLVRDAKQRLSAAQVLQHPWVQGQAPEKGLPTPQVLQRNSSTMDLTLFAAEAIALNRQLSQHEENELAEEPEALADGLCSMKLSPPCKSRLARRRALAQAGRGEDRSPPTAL
Sequence of MNK2 (Q9HBH9 whole entry): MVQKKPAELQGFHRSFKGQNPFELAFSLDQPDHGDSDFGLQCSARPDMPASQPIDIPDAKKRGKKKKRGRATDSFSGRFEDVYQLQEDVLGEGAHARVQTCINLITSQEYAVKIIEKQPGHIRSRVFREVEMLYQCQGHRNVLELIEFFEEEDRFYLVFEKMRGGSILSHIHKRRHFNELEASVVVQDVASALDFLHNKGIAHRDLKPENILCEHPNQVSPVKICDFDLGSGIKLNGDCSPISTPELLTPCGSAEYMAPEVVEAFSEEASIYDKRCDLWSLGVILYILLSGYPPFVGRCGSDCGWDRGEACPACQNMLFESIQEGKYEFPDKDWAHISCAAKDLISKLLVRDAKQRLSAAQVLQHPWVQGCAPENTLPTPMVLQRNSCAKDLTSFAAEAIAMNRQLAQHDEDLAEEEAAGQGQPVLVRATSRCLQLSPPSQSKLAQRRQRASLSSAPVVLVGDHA

Cc1cc(Nc2cc(NC(=O)C3CC3)ncn2)c(=O)n2c1C(=O)NC21CCOCC1 [Compound 4ET-03-009, N-(6-((8-Methyl-1,5-dioxo-1,2′,3′,5,5′,6′-hexahydro-2H-spiro[imidazo[1,5-a]pyridine-3,4′-pyran]-6-yl)amino)pyrimidin-4-yl)cyclopropanecarboxamide]
IC50 [1]: 1.7 nM | brain entry [2]: enters the brain very poorly | Tissue Homogenate Conc. n = 3 ([2]; Brain, individual): 5.5 ng/mL and 7.28 ng/mL | Plasma Conc. n = 3 ([2]; Plasma, individual): 292 ng/mL and 337 ng/mL | concentration at 2 hours ([2]; CD-1, mouse, brain homogenate, Brain, individual, read-out: Tissue Homogenate Conc. n = 3): 7.67 ng/mL | concentration at 2 hours ([2]; CD-1, mouse, brain homogenate, Brain, read-out: Tissue Homogenate Conc. Mean): 6.82 ng/mL | concentration at 2 hours ([2]; CD-1, mouse, brain, Brain, read-out: Mean Tissue): 27.3 ng/g | Kp at 2 hours ([2]; CD-1, mouse, brain/plasma, Brain, read-out: Mean Tissue/Plasma Conc. Ratio): 0.083 | concentration at 2 hours ([2]; CD-1, mouse, plasma, Plasma, individual, read-out: Plasma Conc. n = 3): 357 ng/mL | concentration at 2 hours ([2]; CD-1, mouse, plasma, Plasma, read-out: Plasma Conc. Mean): 329 ng/mL | microsomal CLint ([3]; read-out: CLint rodent): 2.54 µL/min/mg | half-life ([3]; read-out: Rodent liver microsomes t1/2): 9.08 h | efflux ratio at 5 μM (P-gp (human MDR1, ABCB1)): 4.6 | Papp A→B at 5 μM (P-gp (human MDR1, ABCB1)): 5.4 ×10⁻⁶ cm/s | Papp B→A at 5 μM (P-gp (human MDR1, ABCB1)): 25 ×10⁻⁶ cm/s | IC50 (MNK1): 31.3 nM | IC50 (MNK2): 2.6 nM

CCC1=CC2(CCC1)NC(=O)c1c(C)cc(Nc3cc(N)ncn3)c(=O)n12 (stereo not shown) [Compound 4ET-01-021, 6′-((6-Aminopyrimidin-4-yl)amino)-3-ethyl-8′-methyl-2′H-spiro[cyclohexane-1,3′-imidazo[1,5-a]pyridin]-2-ene-1′,5′-dione]
ED50 (IL-6 evoked grimace; Mus musculus, PO, effect size vs. dose): 0.4 mg/kg | efficacy in the IL-6 evoked grimace test (IL-6 evoked grimace; PO 1 hr prior to IL-6, 4ET-01-021 10.0, 3.0 and 1.0 mg/kg, 4ET-03-052B 10.0 mg/kg): efficacious | effect size in the IL-6 evoked grimace test (IL-6 evoked grimace; sum of grimace scores at 1 and 3 hr minus baseline): statistically-significant effect sizes | half-life [4]: 1.55 h | IC50 [1]: 6 nM | AUConf/D [5, 6]: 2420 kg·h/kL | Tlast [5, 6]: 24.0 h | V55 [5, 6]: 3.49 L/kg | AUC(0-inf) ([5]; male, CD-1, mouse, plasma, iv, 1 mg/kg, IV 1.0 mg/kg, mean of 3 animals, read-out: AUCinf): 2420 ng·h/mL | AUC(0-inf) ([5]; male, CD-1, mouse, plasma, iv, 1 mg/kg, IV 1.0 mg/kg, read-out: total systemic exposure (AUCinf)): 2420 ng·h/mL | AUC(0-inf) ([5]; male, CD-1, mouse, plasma, po, 3 mg/kg, oral 3 mg/kg, read-out: total systemic exposure (AUCinf)): 4500 ng·h/mL | AUC(0-inf) ([5]; male, CD-1, mouse, plasma, po, 3 mg/kg, orally dosed at 3 mg/kg, mean of 3 animals, read-out: AUCinf): 4500 ng·h/mL | AUC(0-inf) ([5]; male, CD-1, mouse, plasma, po, 10 mg/kg, oral 10 mg/kg, read-out: total systemic exposure (AUCinf)): 12000 ng·h/mL | AUC(0-inf) ([5]; male, CD-1, mouse, plasma, po, 10 mg/kg, orally dosed at 10 mg/kg, mean of 3 animals, read-out: AUCinf): 12000 ng·h/mL | AUC(0-t) [5, 7]: 4130 ng·h/mL | Cmax [5, 7]: 643 ng/mL | MRT inf [5, 7]: 8.41 h | Tmax [5, 7]: 0.5 h | half-life [5, 7]: 7.11 h | concentration at 24 h [5, 7]: 36.3 ng/mL | bioavailability [5, 7]: 61.9% | AUC(0-t) [5, 8]: 11000 ng·h/mL | Cmax [5, 8]: 1900 ng/mL | MRT inf [5, 8]: 8.51 h | Tmax [5, 8]: 0.25 h | half-life [5, 8]: 7.44 h | concentration at 24 h [5, 8]: 99.5 ng/mL | bioavailability [5, 8]: 49.6% | AUC(0-t) [5, 9]: 2190 ng·h/mL | MRT inf [5, 9]: 8.32 h | half-life [5, 9]: 8.42 h | clearance ([5]; male, CD-1, mouse, plasma, IV 1.0 mg/kg, mean of 3 animals, read-out: CLp): 6.97 mL/min/kg | concentration at 24 h [5, 9]: 19.3 ng/mL | Vd ([5]; male, CD-1, mouse, plasma, IV 1.0 mg/kg, mean of 3 animals, read-out: Vz): 5.1 L/kg | C0 ([5]; male, CD-1, mouse, plasma, IV 1.0 mg/kg, read-out: initial concentration (Co)): 860 ng/mL | AUCinf/D [5, 10]: 1500 kg·h/kL | Tlast [5, 10]: 24 h | AUCinf/D [5, 11]: 1202 kg·h/kL | Tlast [5, 11]: 24 h | efflux ratio at 5 μM (P-gp (human MDR1, ABCB1)): 0.9 | Papp A→B at 5 μM (P-gp (human MDR1, ABCB1)): 55.3 ×10⁻⁶ cm/s | Papp B→A at 5 μM (P-gp (human MDR1, ABCB1)): 52 ×10⁻⁶ cm/s | IC50 (MNK1): 38.7 nM | IC50 (MNK2): 5.8 nM
